Results from patent US11306081B2, “Phenylacetamides as inhibitors of rock” (BRISTOL-MYERS SQUIBB COMPANY, priority 2017, dated 2022).
Like-named read-outs stand apart in the source and are kept apart here. Blank lines part the entries; values can stand above or below the compound they belong to.

How the values were obtained:
[1] = test system: porcine model of IL-1 beta-induced coronary stenosis; conditions: long term treatment; cited from earlier work
rat stroke model = conditions: in vivo; cited from earlier work
[2] = test system: neointimal formation in rats; conditions: cited from earlier work
[3] = test system: spontaneously hypertensive rat, renal hypertensive rat and deoxycortisone acetate salt hypertensive rat models; conditions: cited from earlier work
Dahl salt-sensitive rats = conditions: rat, in vivo; cited from earlier work
ROCK2 = ROCK2 (Homo sapiens (Human), UniProt O75116); test: ROCK assay (LABCHIP 3000 peptide phosphorylation assay); assay type: biochemical; conditions: 5 μM ATP, 1.5 μM peptide substrate, dose-response
Summary of the method: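 Rho kinase variants in 20 mM HEPES pH 7.5, 20 mM MgCl2, 0.015% Brij-35, 4 mM DTT, 5 μM ATP, 1.5 μM FITC-AHA-AKRRRLSSLRA-OH peptide; DMSO <2%. EDTA-stopped; phosphorylated/non-phosphorylated peptide separated by microfluidic LabChip readout. Dose-response inhibition curve-fitted to give IC50.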

Sequence of ROCK2 (O75116 whole entry, species assumed): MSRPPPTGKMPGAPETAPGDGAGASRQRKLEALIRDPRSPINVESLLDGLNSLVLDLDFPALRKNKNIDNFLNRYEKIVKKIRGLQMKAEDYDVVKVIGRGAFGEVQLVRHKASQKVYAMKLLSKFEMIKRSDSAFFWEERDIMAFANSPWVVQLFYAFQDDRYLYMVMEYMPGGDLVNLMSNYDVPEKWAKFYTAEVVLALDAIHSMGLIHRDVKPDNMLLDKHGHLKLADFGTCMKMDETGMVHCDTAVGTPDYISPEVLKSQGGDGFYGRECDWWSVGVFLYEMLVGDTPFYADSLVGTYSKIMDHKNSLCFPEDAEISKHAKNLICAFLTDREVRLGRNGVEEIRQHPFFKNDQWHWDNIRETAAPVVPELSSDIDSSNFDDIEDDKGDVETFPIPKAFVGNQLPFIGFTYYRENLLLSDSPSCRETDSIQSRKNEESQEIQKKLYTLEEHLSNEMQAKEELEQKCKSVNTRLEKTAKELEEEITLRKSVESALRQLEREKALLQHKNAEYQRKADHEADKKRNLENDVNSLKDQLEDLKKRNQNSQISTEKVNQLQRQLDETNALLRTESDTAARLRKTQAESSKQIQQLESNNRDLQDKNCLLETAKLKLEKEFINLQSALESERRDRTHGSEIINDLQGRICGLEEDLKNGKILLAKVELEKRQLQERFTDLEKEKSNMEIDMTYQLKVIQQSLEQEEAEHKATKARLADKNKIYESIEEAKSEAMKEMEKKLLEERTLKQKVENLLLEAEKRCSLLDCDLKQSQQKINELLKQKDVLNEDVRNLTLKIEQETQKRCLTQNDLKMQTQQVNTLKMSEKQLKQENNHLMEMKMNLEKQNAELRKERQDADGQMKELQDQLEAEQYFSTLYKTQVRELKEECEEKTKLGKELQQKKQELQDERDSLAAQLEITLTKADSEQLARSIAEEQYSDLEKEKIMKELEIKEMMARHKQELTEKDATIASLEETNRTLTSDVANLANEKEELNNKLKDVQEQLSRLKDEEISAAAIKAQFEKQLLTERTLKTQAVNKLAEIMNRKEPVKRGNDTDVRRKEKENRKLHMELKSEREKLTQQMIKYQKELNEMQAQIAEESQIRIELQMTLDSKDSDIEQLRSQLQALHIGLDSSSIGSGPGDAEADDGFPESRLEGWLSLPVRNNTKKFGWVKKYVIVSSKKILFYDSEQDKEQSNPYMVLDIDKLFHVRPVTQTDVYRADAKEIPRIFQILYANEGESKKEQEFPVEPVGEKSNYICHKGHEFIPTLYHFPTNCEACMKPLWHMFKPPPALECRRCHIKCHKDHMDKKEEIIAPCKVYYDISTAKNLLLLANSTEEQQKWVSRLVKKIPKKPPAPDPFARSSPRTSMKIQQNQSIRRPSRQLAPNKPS

SMILES: O=S(=O)(c1cccc2cnccc12)N1CCCNCC1 [fasudil]
coronary constrictive remodeling [1]: promote a regression of coronary constrictive remodeling
coronary stenosis [1]: progressively reduce coronary stenosis
infarct size and neurologic deficit (rat stroke model): reduce both the infarct size and neurologic deficit

SMILES: C[C@@H](N)[C@H]1CC[C@H](C(=O)Nc2ccncc2)CC1 [Example Y-27632, Y-27632]
neointimal formation [2]: inhibited neointimal formation
blood pressure ([3]; control rats): only a minor effect on blood pressure
blood pressure ([3]; three rat models of hypertension): significantly decrease blood pressure
ventricular hypertrophy, fibrosis and function (Dahl salt-sensitive rats): improve ventricular hypertrophy, fibrosis and function

IC50 (ROCK2): 1100 nM
SMILES: COC(=O)c1ccc2c(c1)nc(NC(=O)Cc1ccc(Oc3ncccc3C(N)=O)cc1)n2C [Example 074, methyl 2-(2-(4-((3-carbamoylpyridin-2-yl)oxy)phenyl)acet-amido)-1-methyl-1H-benzo[d]imidazole-5-carboxylate]

IC50 (ROCK2): 25 nM
SMILES: NC(=O)c1cccnc1Oc1ccc(CC(=O)Nc2nc3c(OC(F)F)cccn3n2)cc1F [Example 139, 2-(4-(2-((8-(difluoromethoxy)-[1,2,4]triazolo[1,5-a]pyridin-2-yl)amino)-2-oxoethyl)-2-fluorophenoxy)nicotinamide]

IC50 (ROCK2): 7 nM
SMILES: NC(=O)c1cccnc1Oc1ccc(CC(=O)Nc2nc3ccc(F)cc3n2CC2CC2)cc1Cl [Example 172, 2-(2-chloro-4-(2-((1-(cyclopropyl-methyl)-6-fluoro-1H-benzo[d]-imidazol-2-yl)-amino)-2-oxo-ethyl)phenoxy)-nicotinamide]
